The test system of the experiment is PPO dG210 mutant Tall Waterhemp (Amaranthus tuberculatus). The format is in vivo. Conditions: relative to Flumioxazin, Sulfentrazone, and Pyroxasulfone.

On to `C#CCN1C(=O)C(F)(F)Oc2cc(F)c(-c3c(F)c(F)c(F)c(F)c3F)cc21` [Compound 2, 2,2,7-trifluoro-6-(perfluorophenyl)-4-(prop-2-yn-1-yl)-2H-benzo[b][1,4]oxazin-3(4H)-one], for which the “resistant weed control, comparison in words” value is listed as “more effective at resistant weed control than the other commercially available herbicides”.

(Values after US12637438B2, “Protoporphyrinogen oxidase inhibitors” (Enko Chem, Inc., priority 2021, dated 2026).)
